Measurements published in patent publication US20240287627A1, “TEMPORALLY MULTIPLEXED IMAGING” (MASSACHUSETTS INSTITUTE OF TECHNOLOGY, priority 2023, published 2024).

B1: bFGF2: mouse basic fibroblast growth factor 2 (protein, UniProt P15655 10-154, looked up)
Fibroblast growth factor 2: PALPEDGGAAFPPGHFKDPKRLYCKNGGFFLRIHPDGRVDGVREKSDPHVKLQLQAEERGVVSIKGVCANRYLAMKEDGRLLASKCVTEECFFFERLESNNYNTYRSRKYSSWYVALKRTGQYKLGSKTGPGQKAILFLPMSAKS

Columns and labels:
Format in all cases: cell-based
PKA = assay: Kinase translocation reporter imaging, PKA KTR-Clover, in NIH/3T3 cells
From the text: (§1) The constructs of JNKKTRrsGreenFast-E (JNKKTR is SEQ ID NO: 5), P38KTRDronpa, ERKKTRrsFastLime (ERKKTR is SEQ ID NO: 6) were built based on the original KTRs constructs JNKKTRClover (addgene plasmid 59151; JNKKTR is SEQ ID NO: 5), P38KTRmCerulean3 (addgene plasmid 59155), ERKKTRClover(addgene plasmid 59150; ERKKTR is SEQ ID NO: 6), all gift of Markus W. Covert (Regot S, et al., Cell, (2014); 157(7):1724-34). The newly developed three KTRs were then used along with PKAKTRClover (addgene plasmid […]; PKAKTR is SEQ ID NO: 7) and H2B-TagBFP to report the activities of all four kinases. H2B-TagBFP was used as a nucleus marker. NIH/3T3 cells were imaged on the same microscope and incubator system as the imaging of cell cycle phases. Cell culture media were changed to imaging media (MEM (Gibo) without phenol red with 1% FBS (Gibo)) prior to imaging. The imaging conditions (including exposure time, excitation, and emission) for KTRs were the same as those for imaging cell cycle phases as described previously. […]
(§2) Quantification of KTRs: Kinase activities reported by KTRs including CDK2 reporter and CDK4/6 reporter were quantified following the methods described previously (Regot S, et al., Cell, (2014); 157(7):1724-34). […]

P38 = assay: Kinase translocation reporter imaging, Dronpa-based P38 sensor, in NIH/3T3 cells
From the text: as §1, §2

cAMP = cAMP imaging with Pink Flamindo in NIH/3T3 cells (seven-signal imaging); settings: 100 ng/ml PMA added at t=44 min (after forskolin)
From the text: (§3) Simultaneous imaging of seven cell activities within single cells: The genes of the single-color KTRs were cloned into the following plasmid: CAG-JNKKTRrsGreenF-E-P2A-ERK KTRrsFastLime-IRES-PKAKTRClover-P2A-P38KTRDropna (JNKKTR is SEQ ID NO: 5 and PKAKTR is SEQ ID NO: 7). The aforementioned plasmid was then used with plasmid CAG-NIR-GECO2G (Qian Y, et al., PLoS Biol., (2020); 18(11):e3000965), plasmid CMV-Pink Flamindo (Harada K, et al., Sci Rep., (2017); 7(1):7351), and plasmid CMV-BlueCKAR (Mehta S, et al., Nat Cell Biol, (2018); 20(10):1215-25) for imaging 7 signals within individual NIH/3T3 cells. Imaging conditions for blue channel, green channel, and red channel were the same as those used in the imaging of cell cycle phases and CDKs activities. An extra channel (excitation: 637/12 nm at 9 mW/mm^2; emission: 664LP, exposure time: 100 ms) was used for imaging NIR-GECO2G. Images and movies were acquired every 2 min. 50 μM forskolin (Millipore Sigma) and 100 ng/ml Phorbol 12-myristate 13-acetate (PMA) (Millipore Sigma) were used to stimulate cells.

Ca^2+ = assay: Ca2+ imaging with NIR-GECO2G in NIH/3T3 cells (seven-signal imaging); settings: 100 ng/ml PMA added at t=44 min (after forskolin)
From the text: as §3

ERK = assay: Kinase translocation reporter imaging, rsFastLime-based ERK sensor, in NIH/3T3 cells
From the text: as §1, §2

JNK = assay: Kinase translocation reporter imaging, rsGreenF-E-based JNK sensor, in NIH/3T3 cells
From the text: as §1, §2

PKC = PKC imaging with BlueCKAR in NIH/3T3 cells (seven-signal imaging); settings: 100 ng/ml PMA added at t=44 min (after forskolin)
From the text: as §3

[1] = seven-signal imaging, 100 ng/ml PMA added at t=44 min (after forskolin)
[2] = four-KTR imaging, 20 ng/ml bFGF2 at t=0 min

Molecule	PKA response (PKA; [1])	P38 response (P38; [1])	cAMP response (cAMP)	Ca^2+ response (Ca^2+)	ERK response (ERK; [1])	JNK response (JNK; [1])	PKC response (PKC)	PKA KTR signal after stimulation (PKA; [2])	P38 KTR signal after stimulation (P38; [2])	ERK KTR signal after stimulation (ERK; [2])	JNK KTR signal after stimulation (JNK; [2])
CCCCCCCCCCCCCC(=O)O[C@@H]1[C@@H](C)[C@@]2(O)[C@@H](C=C(CO)C[C@]3(O)C(=O)C(C)=C[C@@H]23)[C@@H]2C(C)(C)[C@]12OC(C)=O [PMA, phorbol 12-myristate 13-acetate]	strong responses	little to no changes	strong responses	little to no changes	strong responses	strong responses	strong responses	–	–	–	–
B1	–	–	–	–	–	–	–	Fast onset	steadily increased over time	steadily increased over time	Fast onset
